Here are results for 31 compounds from publication PMC8004985, “Affinity Purification of Angiotensin Converting Enzyme Inhibitory Peptides from Wakame (Undaria Pinnatifida) Using Immobilized ACE on Magnetic Metal Organic Frameworks” (Marine Drugs, 2021).

Data set [1] deals with T1, ACE (Oryctolagus cuniculus, UniProt P12822).
T1 construct: Angiotensin I-converting enzyme (ACE, EC3.4.15.1) from rabbit lung; purchased Sigma-Aldrich Co. (St. Louis, MO, USA); host or cells: rabbit lung (tissue-derived)
T1 sequence (P12822 34-1310): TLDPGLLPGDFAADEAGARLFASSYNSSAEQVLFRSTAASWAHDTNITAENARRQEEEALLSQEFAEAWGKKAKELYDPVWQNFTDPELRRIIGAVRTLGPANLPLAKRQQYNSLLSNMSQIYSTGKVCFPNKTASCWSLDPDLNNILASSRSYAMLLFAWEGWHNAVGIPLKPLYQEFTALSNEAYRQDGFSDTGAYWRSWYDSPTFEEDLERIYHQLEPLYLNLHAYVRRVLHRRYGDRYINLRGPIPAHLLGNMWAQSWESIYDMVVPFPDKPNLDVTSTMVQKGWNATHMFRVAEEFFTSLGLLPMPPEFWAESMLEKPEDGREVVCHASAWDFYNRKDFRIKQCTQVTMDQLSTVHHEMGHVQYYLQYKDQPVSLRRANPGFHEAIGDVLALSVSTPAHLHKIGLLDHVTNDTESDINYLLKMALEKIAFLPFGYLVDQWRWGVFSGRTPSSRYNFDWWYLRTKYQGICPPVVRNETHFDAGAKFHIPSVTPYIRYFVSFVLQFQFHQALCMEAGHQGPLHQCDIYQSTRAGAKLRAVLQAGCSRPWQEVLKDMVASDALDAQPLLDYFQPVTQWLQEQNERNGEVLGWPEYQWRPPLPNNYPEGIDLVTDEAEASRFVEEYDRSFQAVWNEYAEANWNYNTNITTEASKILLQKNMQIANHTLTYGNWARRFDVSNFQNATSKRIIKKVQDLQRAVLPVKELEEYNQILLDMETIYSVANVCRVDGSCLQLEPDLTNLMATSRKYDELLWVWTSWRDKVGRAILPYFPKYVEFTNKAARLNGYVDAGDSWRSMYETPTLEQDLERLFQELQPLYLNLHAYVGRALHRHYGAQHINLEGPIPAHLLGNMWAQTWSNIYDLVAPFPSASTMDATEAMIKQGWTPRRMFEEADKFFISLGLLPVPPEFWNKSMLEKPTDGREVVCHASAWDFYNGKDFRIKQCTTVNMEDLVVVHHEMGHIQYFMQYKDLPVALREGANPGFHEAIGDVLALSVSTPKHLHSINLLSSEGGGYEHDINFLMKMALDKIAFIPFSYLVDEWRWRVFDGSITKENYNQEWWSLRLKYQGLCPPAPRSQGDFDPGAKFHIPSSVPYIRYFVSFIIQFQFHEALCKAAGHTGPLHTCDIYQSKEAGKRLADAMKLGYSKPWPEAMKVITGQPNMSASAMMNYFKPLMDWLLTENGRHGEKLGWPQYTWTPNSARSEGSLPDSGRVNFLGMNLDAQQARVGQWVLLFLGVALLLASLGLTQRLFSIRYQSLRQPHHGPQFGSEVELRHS
Description: Inhibition pattern / kinetics of ACE in presence of KNFL. The data set is classed as biochemical, rabbit. The settings on record: for Vmax: nonlinear regression, control 55.492. The source says: ACE inhibitor peptides have been reported with competitive, noncompetitive, uncompetitive, and mixed modes of interaction. The kinetic constants were estimated by using nonlinear regression analysis (SPSS, version 26.0, Inc., Chicago, IL, USA) and the nonlinear fitting plots were shown in Figure 8. […] Mixed-type inhibitors interact with the non-catalytic site of the enzyme and combine with the enzyme to produce an ACE–HHL(Hip-His-Leu) peptide complex which might leads to conformational changes and a decrease in substrate affinity at the active site resulting in loss of activity. A great many of ACE inhibitor peptides acted in a mixed-type manner. For example, the MAINPSKENLCSTFCK peptide produced from casein hydrolysates, and EVSQGRP, VSRHFASYAN and SAAVGSP generated from Stichopus horrens.
Angiotensin I-converting enzyme (ACE, EC3.4.15.1) from rabbit lung, HHL (Hippuryl-L-histidyl-L-leucine), were obtained from Sigma-Aldrich Co. (St. Louis, MO, USA). The ACE inhibitor KNFL (Lys-Asn-Phe-Leu) was supplied by GL Biochem Ltd. (Shanghai, China). Iron chloride hexahydrate (FeCl3·6H2O), ethylene glycol (EG), diethylene glycol (DEG), sodium acetate anhydrous (NaAc), and zinc acetate dehydrate Zn(CH3COO)2·2H2O were all obtained from Sinopharm Chemical Reagent Co., Ltd. (Shanghai, China). Polyacrylic acid (PAA), imidazolate-2-carboxyaldehyde (2-ICA, 98 %), sodium acrylate (NaAA) were purchased from Macklin Biochemical Co., Ltd (Shanghai, China). The other chemicals and reagents used were of AR grade and used without further purification.
ACE activity was evaluated by measuring the amount of hippuric acid (HA). The assay mixture (0.3 mL) consisted of 130 µL BBS buffer pH 8.3 ([…], containing 0.3 M NaCl), 40 µL HHL (5 mM), and different amounts of the free and immobilized ACE. Incubation was carried out at 37 °C for 10 min and was terminated by addition of HCl (0.1 mL, 1 M). The HA content of the mixture was determined by RP-HPLC (Agilent 1260) at 228 nm with a DAD detector. One unit of ACE enzyme activity (U) was defined as the amount of enzyme catalyzing HHL to generate 1 µM of HA per minute under the experimental conditions.

For data set [2] the following is noted: amino acid residue; source not given; cited from earlier work.
For data set [3] the following is noted: synthetic ACE inhibitors in hypertension treatment; ref [1]; cited from earlier work. An excerpt: As a zinc-dependent carboxypeptidase, angiotensin-I-converting enzyme (ACE EC 3.4.15.1) is prolific in biological tissues and blood, and plays an important role in modulating blood pressure. ACE cannot only convert angiotensin I to angiotensin II (a potent vasoconstrictor), but it can also degrade the vasodilator bradykinin [2]. ACE inhibitors are, thus, a class of drugs frequently used in the treatment of hypertension. Synthetic ACE inhibitors, including captopril, benazepril, enalapril, and perindopril are associated with various side effects, such as cough, taste disturbances, aller ...

For data set [4], the system named is ACE. The settings on record: cited from earlier work. An excerpt:
Table 1 The summary of ACE inhibitory peptides by conventional approach and affinity purification on different medium. | column: IC50 || Table 2 The summary of ACE inhibitory peptides have similar structure with purified peptides KNFL from food protein. | column: IC50 (μM) || Researchers have investigated the structure-activity relationship of ACE inhibitor peptides, such as the peptide chain length, amino acid sequence, C- terminal, and N-terminal amino acid sequence. Most of the ACE inhibitors are reported to have small molecular weights (2–12 amino acids), and there are four amino acids in the newly identified peptide KNFL. […] In this study, the C-terminal amino acids (phenylalanine and leucine) of the KNFL peptide have stro ...

Data set [5] relates to ACE. The settings on record: cited from earlier work. The source says:
ACE inhibitor peptides have been reported with competitive, noncompetitive, uncompetitive, and mixed modes of interaction. The kinetic constants were estimated by using nonlinear regression analysis (SPSS, version 26.0, Inc., Chicago, IL, USA) and the nonlinear fitting plots were shown in Figure 8. […] Mixed-type inhibitors interact with the non-catalytic site of the e ...
This is another data set of the same source.

The mark [6] stands for this setting: in the presence of KNFL (192 and 384 µM).
The mark [7] stands for this setting: Wakame, conventional approach, ref [28].
Setting [8] is: generated from Stichopus horrens, ref [51].
Setting [9] is: Volutharpa ampullaceal perryi, affinity purification/ Zn-SBA-15-ACE, ref [12].

Read-outs that look alike come from different tables or passages of the source. Residues, ends and D or L forms follow the SMILES beside them.

Take `CC(C)C[C@H](NC(=O)[C@H](Cc1ccccc1)NC(=O)[C@H](CC(N)=O)NC(=O)[C@@H](N)CCCCN)C(=O)O` [KNFL, Lys-Asn-Phe-Leu] (H-KNFL-OH; N-terminus and C-terminus assumed): the Vmax in data set [1] (KNFL at 192 µM) is on record as 45.958 µM/L·min; in data set [1] (KNFL at 384 µM) it was 24.105 µM/L·min. Besides, the inhibition pattern result in data set [1] (b33/b37: nonlinear regression, b1: Lineweaver–Burk analysis) is “mixed-type inhibition”. For the same compound, in data set [1] (setting [6]), the “effect on Km” value is recorded as “increased”. In addition, the “effect on Vmax” value in data set [1] (setting [6]) is listed as “decreased in a dose-dependent pattern”. For the compound `N=C(N)NCCC[C@H](N)C(=O)O` [arginine], the “Lipophilicity Parameters” value in data set [2] is given as −4.5. For the compound `NC(=O)C[C@H](N)C(=O)O` [asparagine], in data set [2], the “Lipophilicity Parameters” value was −3.5. As to `N[C@@H](CC(=O)O)C(=O)O` [aspartic acid], the “Lipophilicity Parameters” value in data set [2] was −3.5.

Regarding `CCOC(=O)[C@H](CCc1ccccc1)N[C@H]1CCc2ccccc2N(CC(=O)O)C1=O` [benazepril], in data set [3], the side effects entry is “cough, taste disturbances, allergic reactions, and skin rashes”. For the compound `C[C@H](CS)C(=O)N1CCC[C@H]1C(=O)O` [captopril], the side effects result in data set [3] was “cough, taste disturbances, allergic reactions, and skin rashes”. In the case of `CCOC(=O)[C@H](CCc1ccccc1)N[C@@H](C)C(=O)N1CCC[C@H]1C(=O)O` [enalapril], the side effects entry in data set [3] was “cough, taste disturbances, allergic reactions, and skin rashes”.

`N[C@@H](CCC(=O)O)C(=O)O` [glutamic acid]: the “Lipophilicity Parameters” value in data set [2] was −3.5. `NC(=O)CC[C@H](N)C(=O)O` [glutamine]: the “Lipophilicity Parameters” value in data set [2] is −3.5. With `N[C@@H](Cc1c[nH]cn1)C(=O)O` [histidine], in data set [2], the “Lipophilicity Parameters” value is −3.2. On to `CC(C)C[C@H](N)C(=O)O` [leucine], for which the “Lipophilicity Parameters” value in data set [2] is on record as 3.8.

As for `NCCCC[C@H](N)C(=O)O` [lysine], the “Lipophilicity Parameters” value in data set [2] is −3.9.

`CCC[C@H](N[C@@H](C)C(=O)N1[C@H](C(=O)O)C[C@@H]2CCCC[C@@H]21)C(=O)OCC` [perindopril]: in data set [3], the side effects result was “cough, taste disturbances, allergic reactions, and skin rashes”. `N[C@@H](CO)C(=O)O` [serine]: the “Lipophilicity Parameters” value in data set [2] is given as −0.8.

By IC50 is commonly meant the midpoint of a concentration-inhibition curve. As for AIYK, the IC50 in data set [4] (setting [7]) is 213 µM. Regarding “EVSQGRP [peptide generated from Stichopus horrens]”, the inhibition mode entry in data set [5] (setting [8]) is recorded as “mixed-type”. For GMKCAF, the IC50 in data set [4] (lizard fish, affinity purification/ Magnetic agarose-ACE, ref [6]) is 45.7 ± 1.1 µM.

As for HLHT, the IC50 in data set [4] (Pinctada fucata martensii, affinity purification/ IMAM @ mPEG, ref [10]) was 458.1 ± 3.24 µM. In the case of IVTNWDDMGK, in data set [4] (setting [9]), the IC50 was 2080 µM. For the compound KFYG, the IC50 in data set [4] (setting [7]) is 90.5 µM.

Consider KNGDGY, for which the IC50 in data set [4] (Cuttlefish, ref [49]) is 51.6 µM. For LLYQEPVLGPVR, in data set [4] (casein, affinity purification/ IMAM @ mPEG, ref [9]), the IC50 was 274 ± 5 µM.

For “MAINPSKENLCSTFCK [peptide produced from casein hydrolysates]”, in data set [5] (produced from casein hydrolysates, ref [50]), the inhibition mode result is listed as “mixed-type”.

With RVCLP, in data set [4] (lizard fish, conventional approach, ref [29]), the IC50 is 175 µM. Take RYRP: the IC50 in data set [4] (lizard fish, affinity purification/ IMAC-Ni^2+, ref [39]) was 52 µM. Take “SAAVGSP [peptide generated from Stichopus horrens]”: the inhibition mode entry in data set [5] (setting [8]) was “mixed-type”.

Take VGPAGRRG: the IC50 in data set [4] (setting [9]) is 4660 µM. Regarding “VSRHFASYAN [peptide generated from Stichopus horrens]”, in data set [5] (setting [8]), the inhibition mode result is listed as “mixed-type”. Take WYLHYA: the IC50 in data set [4] (casein, affinity purification/ IMAC-Ni^2+, ref [41]) was 16.2 µM. Turning to YKYY, the concentration for half-maximal inhibition (IC50) in data set [4] (setting [7]) is 64.2 µM.

Take YNKL: in data set [4] (setting [7]), the half-maximal inhibitory concentration (IC50) is 21 µM.
